Like-named read-outs stand apart in the source and are kept apart here.
Tests used:
[1] = target: T1, recombinant EphB4 (Homo sapiens, UniProt P54760); assay: In vitro EphB4 enzyme assay (Alphascreen, phosphorylation of biotin-poly-GAT); type: biochemical; conditions: * = tested once only, read-out: EphB4 enzyme assay Mean IC50 value
T1 construct: amino acids 563-987; Swiss-Prot Acc; No. P54760; purchased ProQinase GmbH 0178-0000-3
T1 sequence (P54760 563-987): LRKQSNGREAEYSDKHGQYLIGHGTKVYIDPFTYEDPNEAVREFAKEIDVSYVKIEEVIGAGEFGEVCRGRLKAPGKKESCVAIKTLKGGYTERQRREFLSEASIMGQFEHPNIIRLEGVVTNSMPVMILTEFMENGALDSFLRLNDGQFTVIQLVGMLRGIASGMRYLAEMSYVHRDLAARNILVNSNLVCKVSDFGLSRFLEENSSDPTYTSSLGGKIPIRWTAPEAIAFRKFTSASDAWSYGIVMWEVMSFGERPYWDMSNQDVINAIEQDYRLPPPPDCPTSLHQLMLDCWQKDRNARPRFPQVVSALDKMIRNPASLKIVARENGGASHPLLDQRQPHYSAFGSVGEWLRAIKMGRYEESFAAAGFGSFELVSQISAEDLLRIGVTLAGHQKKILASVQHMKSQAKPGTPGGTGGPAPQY
Method: A) In vitro EphB4 Enzyme Assay
(§1) This assay detects inhibitors of EphB4-mediated phosphorylation of a polypeptide substrate using Alphascreen™ luminescence detection technology. Briefly, recombinant EphB4 was incubated with a biotinylated-polypeptide substrate (biotin-poly-GAT) in presence of magnesium-ATP. The reaction was stopped by addition of EDTA, together with streptavidin-coated donor beads which bind the biotin-substrate containing any phosphorylated tyrosine residues. Anti-phosphotyrosine antibodies present on acceptor beads bind to phosphorylated substrate, thus bringing the donor & acceptor beads into close proximity. Subsequent excitation of the donor beads at 680 nm generated singlet oxygen species that interact with a chemiluminescer on the acceptor beads, leading to light emission at 520-620 nm. The signal intensity is directly proportional to the level of substrate phosphorylation and thus inhibition is measured by a decrease in signal.
Aqueous Compound Preparation:
Acoustic Compound Preparation:
To ensure that each well contained a total of 120 nl DMSO the wells were all backfilled as required. […] The test range of compounds was 100× the required final concentration.
Assay plates were then incubated at room temperature for 1 hour.
For assays using compounds prepared via acoustic dispensing, the assay mix was adjusted such that the final assay volume of 12 ul contained the same concentration of reagent as 10 ul of assay mix used when aqueous compounds were tested.
The plates were sealed under natural lighting conditions, wrapped in aluminium foil and incubated in the dark for a further 20 hours.
The resulting assay signal was determined on the Perkin Elmer EnVision plate reader. The minimum value was subtracted from all values, and the signal plotted against compound concentration to generate IC50 data. The method used to generate the compound dilutions was recorded with the IC50 value in the database.

[2] = target: T2, recombinant EphA2 (Homo sapiens, UniProt P29317); assay: In vitro EphA2 enzyme assay (Alphascreen, phosphorylation of biotin-poly-GAT); type: biochemical
T2 construct: amino acids 591-976; Swiss-Prot Acc; No. P29317; purchased ProQinase GmbH 0368-0000-1
T2 sequence (P29317 591-976): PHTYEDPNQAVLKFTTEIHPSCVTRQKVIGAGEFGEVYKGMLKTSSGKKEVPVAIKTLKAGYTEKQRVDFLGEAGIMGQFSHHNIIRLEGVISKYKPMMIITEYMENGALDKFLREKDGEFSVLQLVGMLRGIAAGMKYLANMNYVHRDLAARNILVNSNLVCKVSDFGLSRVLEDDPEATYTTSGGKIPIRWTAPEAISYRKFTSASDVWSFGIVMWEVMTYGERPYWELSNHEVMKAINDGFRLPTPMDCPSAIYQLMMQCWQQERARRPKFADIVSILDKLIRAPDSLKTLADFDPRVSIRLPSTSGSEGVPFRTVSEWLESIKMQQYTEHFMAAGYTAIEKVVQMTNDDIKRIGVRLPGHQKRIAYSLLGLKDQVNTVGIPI
Method: C) In vitro EphA2 Enzyme Assay
as §1, with “EphA2-mediated” for “EphB4-mediated”, “EphA2” for “EphB4”
Test compounds were prepared as 10 mM stock solutions in DMSO (Sigma-Aldrich Company Ltd, Gillingham, Dorset SP8 4XT Catalogue No. 154938) and serially diluted with 5% DMSO to give a range of test concentrations at 6× the required final concentration. […]
The resulting assay signal was determined on the Perkin Elmer EnVision plate reader. […]

[3] = Method of compound preparation: Genesis (aqueous compound preparation)
[4] = Method of compound preparation: Echo (acoustic dispensing)

| Structure (SMILES) | IC50 [1, 3] [nM] | IC50 [1, 4] [nM] | IC50 [2] [nM] |
| --- | --- | --- | --- |
| Cc1nc(Nc2nccc(Nc3c(Cl)ccc4c3OCO4)n2)cc(N2CCN(C)CC2)n1 [Example 12, N′-(5-chloro-1,3-benzodioxol-4-yl)-N-[2-methyl-6-(4-methylpiperazin-1-yl)pyrimidin-4-yl]pyrimidine-2,4-diamine] | 6440 |  |  |
| Clc1ccc2c(c1Nc1ccnc(Nc3cc(N4CCOCC4)nc(N4CCOCC4)c3)n1)OCO2 [Example 1, N4-(5-chlorobenzo[d][1,3]dioxol-4-yl)-N2-(2,6-dimorpholinopyridin-4-yl)pyrimidine-2,4-diamine] | 501 |  |  |
| CN(c1ccnc(Nc2cc(N3CCOCC3)nc(N3CCOCC3)c2)n1)c1c(Cl)ccc2c1OCO2 [Example 2, N4-(5-chlorobenzo[d][1,3]dioxol-4-yl)-N2-(2,6-dimorpholinopyridin-4-yl)-N4-methylpyrimidine-2,4-diamine] | 605 |  |  |
| CN(c1ccnc(Nc2cc(Cl)cc(N3CCOCC3)n2)n1)c1cccc2[nH]ncc12 [Example 6, N-(4-chloro-6-morpholin-4-yl-pyridin-2-yl)-N′-(1H-indazol-4-yl)-N′-methyl-pyrimidine-2,4-diamine] | 973 | 7 |  |
| CN(c1ccnc(Nc2cc(Cl)nc(N3CCOCC3)c2)n1)c1cccc2[nH]ncc12 [Example 8, N-(2-chloro-6-morpholin-4-yl-pyridin-4-yl)-N′-(1H-indazol-4-yl)-N′-methyl-pyrimidine-2,4-diamine] | 445 | 4 |  |
| Clc1ccc2c(c1Nc1ccnc(Nc3cccc(N4CCOCC4)n3)n1)OCO2 [Example 10, N′-(5-chloro-1,3-benzodioxol-4-yl)-N-(6-morpholino-2-pyridyl)pyrimidine-2,4-diamine] | 817 | 64 | 566 |
| Clc1ccc2c(c1Nc1ccnc(Nc3cc(N4CCOCC4)ccn3)n1)OCO2 [Example 9, N′-(5-chloro-1,3-benzodioxol-4-yl)-N-(4-morpholino-2-2pyridyl)pyrimidine-2,4-diamine] | 170 | 52 | 131 |
| CN(c1ccnc(Nc2ccnc(N3CCOCC3)c2)n1)c1cccc2[nH]ncc12 [Example 4, N′-(1H-indazol-4-yl)-N′-methyl-N-(2-morpholin-4-ylpyridin-4-yl)pyrimidine-2,4-diamine] | 146 | 3 |  |

From US7718653B2, “Pyrimidine derivatives for inhibiting Eph receptors” (AstraZeneca AB, priority 2007, dated 2010)
